Assay results from patent US20250027041A1, “COMPOSITION FOR INDUCING TRANSDIFFERENTIATION AND STEM CELLS TREATED THEREWITH” (YJ CERAPEUTICS INC., priority 2021, published 2025).

Legend:
CtBP1-CtBP2 = biological target: T1, CtBP1-CtBP2 (Homo sapiens, UniProt P56545+Q13363); test: Immunoprecipitation, CtBP1-CtBP2 heteromerization in UCB-MSCs; type: cell-based; conditions: YJ102 20 μM; FLAG-CtBP2 + HA-CtBP1
T1 construct: expressed in transfected cells; host or cells: human UCB-MSC
Experimental: To determine the effect of YJ102 on the regulation of oligomerization of C-terminal Binding Proteins (CtBPs) in human UCB-MSCs, immunoprecipitation analysis was performed. Specifically, UCB-MSCs were dispensed at 4×10^5 cells/ml in a 60 mm culture dish, and the next day, FLAG-CtBP1, HA-CtBP1, FLAG-CtBP2, and HA-CtBP1 were transfected into cells using 4 μl jetPRIME. Thereafter, the cells were treated with YJ102 (stock 30 mM in DMSO) and MTOB (stock 300 mM in DMSO) at 20 μM and 300 μM, respectively (Table 1). After 48 hours of transfection, proteins were extracted in the same manner as in Example 1-1. Protein G agarose slurry was washed with PBS and blocked with 1 ml of 1% BSA, washed with PBS, and added with 1 μg of anti-HA antibody diluted with 1.5 ml of PBS and incubated at 4° C. for 2 hours. Thereafter, the cells were centrifuged at 3,000×g for 2 minutes to remove the supernatant, washed with an IP150 buffer two times, added with 1 μg of the protein extracted above, and incubated at 4° C. overnight. After incubation, the cells were centrifuged at 3,000×g for 2 minutes to remove the supernatant, washed with PBS three times, added with 50 μl of 1 mg/ml HA peptide diluted with PBS, and incubated at room temperature for 10 minutes. […]

human UCB-MSCs = test: Tuj1 immunochemical assay with CtBP inhibitors; type: cell-based; conditions: 30 μM, 5 days
Experimental: To determine CtBP1-mediated ciNSC5 differentiation by YJ102 in human UCB-MSCs, a CTBP1 mechanism by treatment with NSC95397 or 4-methylthio-2-oxobutanoate (MTOB) was analyzed by immunochemical assay. Specifically, UCB-MSCs were dispensed at 2.1×10^4 cells/well in a 12-well plate containing an 18 mm cover glass (circular) (a DMSO control group was dispensed at 3.5×10^3 cells/well). […] The culture medium was removed, washed with PBS, and fixed with 4% paraformaldehyde at room temperature for 10 minutes. After washed three times with PBS, the cells were permeabilized with PBS-T containing 0.5% Triton X-100 for 10 minutes, washed with PBS-T three times for 10 minutes each, and then blocked with a blocking solution (PBS-T containing 5% BSA and 5% goat serum) for 1 hour. Thereafter, the cells were treated with anti-Tuj1 antibody (Cat. 801201, BioLegend) diluted 1/5000 in a blocking solution and incubated at 4° C. overnight. The next day, the cells were washed 10 times for 10 minutes each with PBS-T, and then treated with anti-mouse IgG-cy3 (Cat. 111-165-003, Jackson ImmunoResearch) diluted 1/2000 in a blocking solution, and incubated for 1 hour in dark conditions. Next, the cells were washed 10 times for 10 minutes each with PBS-T, mounted with a mounting solution containing DAPI, and then observed with a confocal microscope.

UCB-MSC (Promo Cell) = test: Tuj1 immunochemical assay, UCB-MSC (Promo Cell); type: cell-based, human; conditions: 10, 20 or 30 μM, 5 days
Experimental: To determine whether transdifferentiation into ciNSC5, neural progenitor cells, occurred similarly even in MSCs of different origins when human UCB-MSCs were treated with YJ101, YJ102, or YJ103 for 5 days, the expression of neuronal markers in differentiated ciNSC5 was confirmed by immunochemical assay using MSCs from human adipose-derived mesenchymal stem cells (AD-MSCs), human bone marrow-derived mesenchymal stem cells ([…]) and human umbilical cord blood-derived mesenchymal stem cells (UCB-MSCs; Promo Cells). Specifically, AD-MSC (StemPro™ Human Adipose-Derived Stem Cell, Gibco, Passage #6) was incubated in a MesenPRO RS™ medium, BM-MSC (ATCC, Passage #6) was incubated in a Mesenchymal Stem Cell Basal Medium for Adipose, Umbilical and Bone Marrow-derived MSC (Cat. PCS-500-030, ATCC) medium, and UCB-MSC (Promo Cell, Passage #6) was incubated in a CellCor™ CD MSC (Cat. YSP001, Xell Therapeutics) medium, and then dispensed at 2.1×10^4 cells/well in a 12-well plate with an 18 mm cover glass (circular) (DMSO control group was dispensed at 3.5×10^3 cells/well). […] The culture medium was removed, washed with PBS, and then fixed with 4% paraformaldehyde at room temperature for 10 minutes. After washed three times with PBS, the cells were permeabilized with PBS-T containing 0.5% Triton X-100 for 10 minutes, washed with PBS-T three times for 10 minutes each, and then blocked with a blocking solution (PBS-T containing 5% BSA and 5% goat serum) for 1 hour. Thereafter, the cells were treated with anti-Tuj1 antibody (Cat. 801201, BioLegend) diluted 1/5000 in a blocking solution and incubated at 4° C. overnight. The next day, the cells were washed 10 times for 10 minutes each with PBS-T, and then treated with anti-mouse IgG-cy3 diluted 1/2000 in a blocking solution, and incubated for 1 hour in dark conditions. Next, the cells were washed 10 times for 10 minutes each with PBS-T, mounted with a mounting solution containing DAPI, and then observed with a confocal microscope.

CCc1ccc(N(C(=O)COC)c2nc3cc(Cl)ccc3o2)cc1 [YJ102]
CtBP1-CtBP2 heteromerization (CtBP1-CtBP2): had no effect | differentiation of UCB-MSCs into ciNSC5 through CtBP1 regulation (human UCB-MSCs): differentiated UCB-MSCs into ciNSC5 | expression of Tuj1 (UCB-MSC (Promo Cell)): increased
